Data reported in patent publication US20090217394A1 (priority 2005, published 2009).

Experiments:
mouse = settings: dosage of 50 μg/kg
SCID-Ins-TRECK-Tg mouse = assay: Blood insulin level after DT in transgenic mouse; type: in vivo
From the text: (§1) Moreover, the blood insulin level of an SCID-Ins-TRECK-Tg mouse was compared with that of a non-Tg mouse. When DT had not yet been administered, there had been no difference between them. […] However, the SCID-Ins-TRECK-Tg mouse was not able to secrete insulin, and thus the blood insulin level thereof was not changed (FIG. 5B) in it.

SCID-Ins-TRECK-Tg mice [1] = assay: Blood glucose level after intraperitoneal diphtheria toxin in transgenic mice; type: in vivo, mouse
[2] = system: non-transgenic mouse born of the same mother; assay: Blood glucose level after diphtheria toxin in non-transgenic littermate; type: in vivo
non-Tg mouse = assay: Blood insulin level after DT in non-Tg mouse; type: in vivo
From the text: as §1

mouse cells = settings: toxin added from outside of the cells; cited from earlier work
[3] = system: islets of Langerhans in the pancreas of the transgenic mouse; assay: Histological analysis of transgenic mouse pancreas after diphtheria toxin; type: in vivo
SCID-Ins-TRECK-Tg mice [4] = assay: Decrease in blood glucose level by administration of insulin to DT-induced hyperglycemic mice; type: in vivo, mouse
[5] = molecular target: human HB-EGF (L148S/P149T) (human) (UniProt Q99075); assay: cell-based or functional assay
[6] = 5th day after administration of DT
[7] = after DT, 10 minutes after 2 g/kg oral glucose
[8] = diphtheria toxin 50 ng/kg to 50 μg/kg intraperitoneal, within two days
[9] = 7 days after 5 μg/kg diphtheria toxin, immunostaining

UniProt Q99075, sequence (Q99075 63-148 L148S): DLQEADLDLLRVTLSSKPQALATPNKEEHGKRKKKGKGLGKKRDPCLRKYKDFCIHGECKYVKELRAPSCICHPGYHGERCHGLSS

diphtheria toxin
abnormality after administration (mouse): no abnormality is observed
blood insulin level (SCID-Ins-TRECK-Tg mouse; [6]): significantly decreased
blood insulin level after glucose load (SCID-Ins-TRECK-Tg mouse; [7]): not changed
time for which high blood glucose level was maintained (SCID-Ins-TRECK-Tg mice [1]; diphtheria toxin 50 ng/kg to 20 μg/kg intraperitoneal): ≥ 50 days
blood glucose level from four days after administration (SCID-Ins-TRECK-Tg mice [1]; diphtheria toxin 50 ng/kg to 20 μg/kg intraperitoneal, from four days after administration): ≥ 400 mg/dL
blood glucose level two days after administration (SCID-Ins-TRECK-Tg mice [1]; diphtheria toxin 50 ng/kg to 20 μg/kg intraperitoneal, two days after administration): ≥ 200 mg/dL
blood glucose level within two days after administration (SCID-Ins-TRECK-Tg mice [1]; [8]): ≥ 200 mg/dL
glucose and ketone bodies in urine (SCID-Ins-TRECK-Tg mice [1]; [8]): detection of glucose and ketone bodies in urine
duration of hyperglycemic state (SCID-Ins-TRECK-Tg mice [1]; single DT administration, 5 ng/kg to 50 μg/kg intraperitoneal): ≥ 2 months
minimum DT amount necessary for inducing hyperglycemia (SCID-Ins-TRECK-Tg mice [1]; single intraperitoneal administration): 50 ng/kg
changes in blood glucose levels due to administration of the toxin [2]: no changes
blood insulin level (non-Tg mouse; [6]): not changed
blood insulin level after glucose load (non-Tg mouse; [7]): rapidly increased
resistance of mouse cells to diphtheria toxin relative to human cells (mouse cells): ≥ 1,000 times
insulin positive cells (β cells) in islets of Langerhans [3, 9]: significantly decreased
number of α cells stained with anti-glucagon antibodies [3, 9]: increased
cells in the islets of Langerhans (HE staining) ([3]; 7 days after 40 μg/kg diphtheria toxin): damaged

NovoRapid injection: rapid-acting insulin analogue (NovoRapid injection; NovoNordisk Pharma)
blood glucose level after insulin (SCID-Ins-TRECK-Tg mice [4]; 1 U intraperitoneal, severe hyperglycemia (blood glucose >600 mg/dl)): decreased to a normal level
blood glucose level after insulin (SCID-Ins-TRECK-Tg mice [4]; 100 mU insulin, mouse at 500 mg/dl or higher after 1 μg/kg DT (FIG. 5A)): rapidly decreased to a normal value
blood glucose level after insulin (SCID-Ins-TRECK-Tg mice [4]; 100 mU intraperitoneal, 7 days after 1 μg/kg DT, mouse with blood glucose 500 mg/dl (FIG. 5C)): normalized
blood glucose level after insulin (SCID-Ins-TRECK-Tg mice [4]; 100 mU intraperitoneal, severe hyperglycemia (blood glucose >600 mg/dl)): no changes

diphtheria toxin (from UniProt P00588 33-567)
minimum DT amount necessary for inducing hyperglycemia [5]: 50 ng/kg
